What was measured:
Assay in all cases: SILAC RP-ABPP
Type in all cases: cell-based
Conditions in all cases: SILAC H/L, MDA-MB-231
[1] = target: T1, MAN2B1 Lysosomal alphamannosidase (O00754) (Homo sapiens, UniProt O00754)
T1 construct: shared by both the endogenous and recombinant forms of these proteins; endogenous in cells; host or cells: HEK293T and MDA-MB-231
T1 sequence (O00754 50-1011): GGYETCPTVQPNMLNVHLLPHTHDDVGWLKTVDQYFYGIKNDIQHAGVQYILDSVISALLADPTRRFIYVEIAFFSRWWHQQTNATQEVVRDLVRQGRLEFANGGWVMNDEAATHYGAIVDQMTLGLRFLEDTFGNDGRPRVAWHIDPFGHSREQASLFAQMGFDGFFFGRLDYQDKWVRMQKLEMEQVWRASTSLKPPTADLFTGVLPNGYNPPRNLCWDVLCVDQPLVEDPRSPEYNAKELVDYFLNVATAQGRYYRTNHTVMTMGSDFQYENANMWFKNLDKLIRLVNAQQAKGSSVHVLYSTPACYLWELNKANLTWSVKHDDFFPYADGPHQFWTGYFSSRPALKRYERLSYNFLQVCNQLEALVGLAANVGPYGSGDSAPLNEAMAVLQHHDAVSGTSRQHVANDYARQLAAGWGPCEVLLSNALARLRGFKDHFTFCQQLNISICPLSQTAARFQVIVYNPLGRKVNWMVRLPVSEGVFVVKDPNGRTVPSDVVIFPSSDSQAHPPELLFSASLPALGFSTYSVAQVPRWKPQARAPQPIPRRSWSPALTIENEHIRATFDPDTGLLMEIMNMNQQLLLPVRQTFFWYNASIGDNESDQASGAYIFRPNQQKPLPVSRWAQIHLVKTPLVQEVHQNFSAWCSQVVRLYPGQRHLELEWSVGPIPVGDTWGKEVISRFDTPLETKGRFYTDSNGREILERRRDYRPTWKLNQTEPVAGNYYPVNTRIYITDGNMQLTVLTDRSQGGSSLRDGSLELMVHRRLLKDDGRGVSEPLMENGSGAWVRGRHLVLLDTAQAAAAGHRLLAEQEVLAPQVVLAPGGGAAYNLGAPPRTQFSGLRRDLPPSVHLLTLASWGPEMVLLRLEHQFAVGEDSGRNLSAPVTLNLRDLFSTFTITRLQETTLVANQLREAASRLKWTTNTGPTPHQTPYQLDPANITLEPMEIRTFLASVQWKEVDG

[2] = target: T2, SERPINE1 Plasminogen activator inhibitor 1 (P05121) (Homo sapiens, UniProt P05121)
T2 construct: In Situ Labelling of Cells with Hydrazine Probes for MS Experiments; endogenous in cells

[3] = target: T3, CTSB Cathepsin B (P07858) (Homo sapiens, UniProt P07858)
T3 construct: In Situ Labelling of Cells with Hydrazine Probes for MS Experiments; endogenous in cells; host or cells: HEK293T and MDA-MB-231

T2 sequence (P05121 24-402): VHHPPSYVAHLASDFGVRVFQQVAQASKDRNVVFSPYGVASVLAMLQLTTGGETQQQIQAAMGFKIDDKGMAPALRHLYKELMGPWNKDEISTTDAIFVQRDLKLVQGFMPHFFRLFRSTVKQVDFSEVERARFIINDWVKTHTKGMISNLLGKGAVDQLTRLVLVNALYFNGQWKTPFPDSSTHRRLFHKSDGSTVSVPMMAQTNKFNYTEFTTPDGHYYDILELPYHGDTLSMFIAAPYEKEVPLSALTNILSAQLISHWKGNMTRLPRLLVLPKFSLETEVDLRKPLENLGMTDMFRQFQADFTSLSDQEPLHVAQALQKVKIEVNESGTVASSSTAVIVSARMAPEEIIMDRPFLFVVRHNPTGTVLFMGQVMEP

Row | enrichment ratioavg ([1]; probe 2 1 mM 0.5 h vs probe 4) | competition ratioavg ([1]; probe 2 vs probe 2+10x probe 4) | enrichment ratioavg ([2]; probe 2 1 mM 0.5 h vs probe 4) | competition ratioavg ([2]; probe 2 vs probe 2+10x probe 4) | enrichment ratioavg ([3]; probe 2 1 mM 0.5 h vs probe 4) | competition ratioavg ([3]; probe 2 vs probe 2+10x probe 4) | Structure (SMILES) | enrichment ratioavg ([1]; probe 1 3 mM 0.5 h vs probe 3) | competition ratioavg ([1]; probe 1 vs probe 1+10x probe 3) | enrichment ratioavg ([2]; probe 1 3 mM 0.5 h vs probe 3) | competition ratioavg ([2]; probe 1 vs probe 1+10x probe 3) | enrichment ratioavg ([3]; probe 1 3 mM 0.5 h vs probe 3) | competition ratioavg ([3]; probe 1 vs probe 1+10x probe 3)
1 |  |  |  |  |  |  | C#CCNN.Cl [probe 1, prop-2-yn-1-ylhydrazine hydrochloride] | 20 | 8 | 17 | 3 | 9 | 3
2 | 20 | 4 | 20 | 3 | 14 | 5 | C#CCCNC(=O)c1ccc(NN)cc1.Cl [probe 2, N-(but-3-yn-1-yl)-4-hydrazinylbenzamide hydrochloride] |  |  |  |  |  | 

Reference: patent US11226337B2, “Chemoproteomic profiling of protein electrophilic and oxidative post-translational modifications” (Zenagem, LLC, priority 2017, dated 2022)
